Test results as given in patent publication US20220304302A1, “MUCILAGE BASED PLANT PROTECTION PRODUCT AND METHOD THEREOF” (BOTANOHEALTH LTD., priority 2019, published 2022).

Tested on: Powdery mildew
Experiment: Powdery mildew on whole Bell pepper plants
Type: in vivo
Details: 1000 spores, evaluated every 24 hours for 3 days
Protocol: Bell pepper plants where obtained at 4 weeks, replanted and acclimatized (22-28° C., 16 hour light). • ii. Plants where divided between treated plants: present formulation/active agent (thyme oil 0.1%)+Soap, negative control plants (no active fungicide) and a positive control (Penconazole, Ophir 2000). The plants were treated on 4 leafs, at 6 places on each leaf, with a solution containing 1000 spores. Infected plants were preserved in a moist environment. • iii. Fungi infestation was evaluated every 24 hours for 3 days: • i. Treated: 55% of leafs where infected; • ii. Negative control: 97.5 of leafs where infected • iii. Positive control: 40% of leafs where infected

Work on `CCCC(Cn1cncn1)c1ccc(Cl)cc1Cl` (stereo not shown) [Penconazole] yielded a leafs infected of 40%.
